These results are taken from article PMC5824344 (ACS Chemical Biology, 2017).

Assay [1] deals with T1, Rat liver ER α-glucosidase II (Rattus norvegicus, UniProt A0A8I6GFL3).
T1 construct: Rat liver ER, II; from tissue; host or cells: liver of male Wistar rats
Put plainly: Inhibition of isolated rat liver ER α-glucosidase II (α-p-nitrophenylglucoside substrate). It counts as biochemical. To be noted: isolated enzyme in vitro; read-out: IC50 with regard to GluII. The method, then: (§1) 4 Enzyme Inhibition Assays
(§2) All rat enzymes were isolated from 18-week-old, male Wistar rats, while human lysosomal α-glucosidase was obtained in commercially available form from Sanoﬁ Genzyme. Inhibition of isolated glucosidases was evaluated as described previously. 3 Brieﬂy, maltase, isomaltase, sucrase, and cellobiase were used as partially puriﬁed tissue extracts. Inhibition assays for each enzyme were performed with the respective natural substrate, and release of d-glucose measured by Glucose B-test (Wako Diagnostics). Assays of rat ER α-glucosidase II and human lysosomal α-glucosidase inhibition were conducted with α-p-nitrophenylglucoside as substrate; 400 mm Na2CO3 was added to quench these reactions, and the extent of hydrolysis was evaluated as absorbance at 400 nm by spectrophotometer.
(§3) ER α-glucosidase I inhibition assays were performed using anthranilic acid-labelled Glc3Man7GlcNAc2 as substrate. After terminating the reaction with acetonitrile, protein was removed by cen-trifugation through a 10 kDa molecular weight cut oﬀ ﬁlter. The amount of hydrolysis was then quantiﬁed by normal phase high performance liquid chromatography analysis of unreacted substrate and product (Glc2Man7GlcNAc2).4
(§4) ER α-glucosidase II inhibition assays using native-like substrates were performed using an-thranilic acid-labelled Glc2Man7GlcNAc2 as substrate. After terminating the reaction with acetonitrile, protein was removed by centrifugation through a 10 kDa molecular weight cut oﬀ ﬁlter. The amount of hydrolysis was then quantiﬁed by normal phase high performance liq-uid chromatography analysis of unreacted substrate and both products (Glc1Man7GlcNAc2

Assay [2] has as its target Rat intestinal maltase. Put plainly: Inhibition of rat intestinal maltase (natural substrate, glucose release). It counts as biochemical. To be noted: for IC50: isolated enzyme in vitro, mean of three measurements, read-out: IC50, α-Glucosidase, Rat intestinal maltase. The method, then: as §1, §2, §3, §4
Assay [3] deals with T2, Rat intestinal isomaltase (Rattus norvegicus, UniProt P23739).
T2 construct: from tissue; host or cells: intestine of male Wistar rats, partially purified extract
The experiment in a line: Inhibition of rat intestinal isomaltase (natural substrate, glucose release). It counts as biochemical. Conditions: for IC50: isolated enzyme in vitro, mean of three measurements, read-out: IC50, α-Glucosidase, Rat intestinal isomaltase. The method, then:
as §1, §2, §3, §4

Assay [4] deals with T3, Rat intestinal sucrase (Rattus norvegicus, UniProt P23739).
T3 construct: from tissue; host or cells: intestine of male Wistar rats, partially purified extract
The experiment in a line: Inhibition of rat intestinal sucrase (natural substrate, glucose release). It is filed as biochemical. Conditions: for IC50: isolated enzyme in vitro, mean of three measurements, read-out: IC50, α-Glucosidase, Rat intestinal sucrase.

In assay [5] the target is T4, human lysosomal α-glucosidase (Homo sapiens, UniProt P10253).
T4 construct: purchased Sanofi Genzyme
The experiment in a line: Inhibition of human lysosomal α-glucosidase (α-p-nitrophenylglucoside substrate). It counts as biochemical. Conditions: for IC50: isolated enzyme in vitro, mean of three measurements, read-out: IC50, α-Glucosidase, Human lysosome.

The test system of assay [6] is GluI and GluII in primary human monocyte-derived macrophages (MDMΦ). Put plainly: Free oligosaccharide (FOS) assay in primary monocyte-derived macrophages. It is filed as cell-based. To be noted: naive MDMΦ. The method, then: (§5) 5 Cell and Virus Culture and Assays
(§6) 5.1 Culture of Cell Lines
(§7) The human hepatoma cell line Huh7.5 (Apath, LLC) was cultured in Dulbecco’s modiﬁed Eagle medium (DMEM) with Glutamax (Gibco) supplemented with 100 µg mL−1 strepto-mycin (Sigma), 100 U mL−1 penicillin (Sigma), 100 µm MEM non-essential amino acids (Gibco) and 10% (volume/volume, v/v) heat-inactivated (56 ◦C, 30 min) fetal calf serum (FCS, Seralab). The human monocytic cell line HL60 (ATCC), human T lymphocyte cell line Jurkat (ATCC), and human B lymphocyte cell line Raji (ATCC) were each maintained in RPMI 1640 media with Glutamax (Gibco) supplemented with 100 µg mL−1 streptomycin, 100 U mL−1 penicillin and 10% (v/v) FCS. […]
(§8) Cell viability was measured using the CellTiter 96 R© AQueous One Solution Cell Prolifera-tion MTA (3-(4,5-dimethylthiazol-2-yl)-5-(3-carboxymethoxyphenyl)-2-(4-sulfophenyl)-2H - […]
(§9) After a further one to two hour incubation, the absorbance at 490 nm was measured on a Molecular Devices SpectraMax M5 microplate reader. […]
(§10) Absorbances were averaged across replicates, and corrected for background by subtracting the value for media-only wells. Each drug treatment was then evaluated as a percentage of untreated cells. […]
FOS analysis was carried out as described previously. […] Before purifying the FOS, each sample was analyzed for protein content using the modiﬁed Bradford assay. […]

Assay [7] concerns GluI and GluII in human hepatoma Huh7.5 cells. The experiment in a line: Free oligosaccharide (FOS) assay in Huh7.5 cells. It is filed as cell-based. To be noted: naive Huh7.5 cells, 48 h, 50 µm. The method, then: as §5, §6
as §7, with “FCS. The monkey kidney cell line LLC-MK2 (a gift from Armed Forces Research Institute of Medical Sciences, Thailand) was cultured in M199 media (Gibco) supplemented with 2 mm l-glutamine, 100 µg mL−1 streptomycin, 100 U mL−1 penicillin and 20% (v/v) FCS. Subsequently, these are referred to as growth media for each cell line. Unless otherwise indicated, all cell incubations were carried out at 37 ◦C and 5% CO2.” for “FCS.”
as §8, §9, §10
(§11) FOS analysis was carried out as described previously. […] Before purifying the FOS, each sample was analyzed for protein content using the modiﬁed Bradford assay. […] The labelled glycans were then analyzed by normal phase high performance liquid chromatography. Retention times and peak area were used to identify and quantify glycans, respectively, by comparison to standards of known identity and molar quantity. FOS quantities were normalized to protein levels.

Assay [8] deals with GluI and GluII in HL60 (promyelocytic) cells. Put plainly: Free oligosaccharide (FOS) assay in HL60 cells. To be noted: 48 h. It is filed as cell-based, human. The method, then:
as §5, §6
The human hepatoma cell line Huh7.5 (Apath, LLC) was cultured in Dulbecco’s modiﬁed Eagle medium (DMEM) with Glutamax (Gibco) supplemented with 100 µg mL−1 strepto-mycin (Sigma), 100 U mL−1 penicillin (Sigma), 100 µm MEM non-essential amino acids (Gibco) and 10% (volume/volume, v/v) heat-inactivated (56 ◦C, 30 min) fetal calf serum (FCS, Seralab). The human monocytic cell line HL60 (ATCC), human T lymphocyte cell line Jurkat (ATCC), and human B lymphocyte cell line Raji (ATCC) were each maintained in RPMI 1640 media with Glutamax (Gibco) supplemented with 100 µg mL−1 streptomycin, 100 U mL−1 penicillin and 10% (v/v) FCS. The monkey kidney cell line LLC-MK2 (a gift from Armed Forces Research Institute of Medical Sciences, Thailand) was cultured in M199 media (Gibco) supplemented with 2 mm l-glutamine, 100 µg mL−1 streptomycin, 100 U mL−1 penicillin and 20% (v/v) FCS. Subsequently, these are referred to as growth media for each cell line. Unless otherwise indicated, all cell incubations were carried out at 37 ◦C and 5% CO2. All cells were maintained as mycoplasma free, with regular veriﬁcations by polymerase chain reaction (PCR).
5.2 Isolation and Culture of Primary Human MDMΦ
Primary human MDMΦ were generated from human monocytes isolated from buﬀy coats (NHS Blood and Transplant, surplus to clinical requirements) as described previously 5 and cultured in X-VIVO10 medium (Lonza) supplemented with 1% (v/v) heat-inactivated (56◦C, 30 min) autologous plasma. The use of human blood was approved by the NHS National Research Ethics Service (09/H0606/3).
as §8
tetrazolium, inner salt) Assay (Promega) according to the manufacturer’s instruction. Brieﬂy, cells were treated in triplicate either for 4 d (Huh7.5) or 2 d (all other cell types). […]
as §9, §10, §11

T3 sequence (P23739 whole entry): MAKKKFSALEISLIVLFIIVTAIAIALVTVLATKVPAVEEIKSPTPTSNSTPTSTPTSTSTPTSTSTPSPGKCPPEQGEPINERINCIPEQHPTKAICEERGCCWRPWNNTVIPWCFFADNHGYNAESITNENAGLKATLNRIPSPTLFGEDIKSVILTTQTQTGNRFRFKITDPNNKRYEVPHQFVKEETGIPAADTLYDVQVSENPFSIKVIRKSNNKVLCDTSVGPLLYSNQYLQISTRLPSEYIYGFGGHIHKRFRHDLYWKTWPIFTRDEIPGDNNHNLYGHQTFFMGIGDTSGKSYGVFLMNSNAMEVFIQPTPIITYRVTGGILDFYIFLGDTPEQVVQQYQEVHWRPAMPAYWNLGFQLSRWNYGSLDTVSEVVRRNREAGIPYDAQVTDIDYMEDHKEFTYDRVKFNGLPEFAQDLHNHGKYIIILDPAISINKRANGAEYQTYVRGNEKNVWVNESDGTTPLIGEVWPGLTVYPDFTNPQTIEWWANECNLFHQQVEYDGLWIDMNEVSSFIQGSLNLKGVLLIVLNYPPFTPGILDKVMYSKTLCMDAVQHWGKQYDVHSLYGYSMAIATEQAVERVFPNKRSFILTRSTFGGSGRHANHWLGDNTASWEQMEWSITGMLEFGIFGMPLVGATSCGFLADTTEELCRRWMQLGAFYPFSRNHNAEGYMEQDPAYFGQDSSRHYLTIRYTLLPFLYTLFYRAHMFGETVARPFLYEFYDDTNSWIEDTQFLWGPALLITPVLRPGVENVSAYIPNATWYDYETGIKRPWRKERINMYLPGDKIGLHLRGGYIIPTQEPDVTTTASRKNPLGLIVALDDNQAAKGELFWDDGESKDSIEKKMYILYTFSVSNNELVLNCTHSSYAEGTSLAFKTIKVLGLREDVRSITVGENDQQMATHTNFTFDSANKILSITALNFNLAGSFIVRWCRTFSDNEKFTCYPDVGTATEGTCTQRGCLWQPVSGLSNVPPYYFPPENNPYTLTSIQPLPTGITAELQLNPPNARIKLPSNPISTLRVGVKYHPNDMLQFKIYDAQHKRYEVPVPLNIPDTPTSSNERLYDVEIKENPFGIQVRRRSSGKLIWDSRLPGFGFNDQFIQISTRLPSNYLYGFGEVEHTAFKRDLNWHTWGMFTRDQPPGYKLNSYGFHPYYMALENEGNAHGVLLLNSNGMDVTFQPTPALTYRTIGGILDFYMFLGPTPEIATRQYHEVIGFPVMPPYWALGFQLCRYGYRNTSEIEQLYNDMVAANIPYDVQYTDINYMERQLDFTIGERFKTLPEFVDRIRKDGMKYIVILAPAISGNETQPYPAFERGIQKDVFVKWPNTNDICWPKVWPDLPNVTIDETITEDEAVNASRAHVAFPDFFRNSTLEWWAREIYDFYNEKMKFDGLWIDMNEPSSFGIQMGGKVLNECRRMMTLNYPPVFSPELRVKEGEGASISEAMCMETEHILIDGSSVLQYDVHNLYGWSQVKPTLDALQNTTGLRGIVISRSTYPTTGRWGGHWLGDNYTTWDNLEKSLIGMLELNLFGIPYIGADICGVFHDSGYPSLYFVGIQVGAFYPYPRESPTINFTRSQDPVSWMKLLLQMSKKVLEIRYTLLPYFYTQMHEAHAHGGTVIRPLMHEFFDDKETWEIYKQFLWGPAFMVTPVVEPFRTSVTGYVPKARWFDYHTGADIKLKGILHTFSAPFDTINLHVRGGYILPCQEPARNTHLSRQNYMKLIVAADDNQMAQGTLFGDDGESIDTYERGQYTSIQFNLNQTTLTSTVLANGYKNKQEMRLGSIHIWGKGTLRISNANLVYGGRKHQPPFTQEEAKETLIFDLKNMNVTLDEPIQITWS
T2 sequence (P23739 whole entry): as above
T1 sequence (A0A8I6GFL3 33-944): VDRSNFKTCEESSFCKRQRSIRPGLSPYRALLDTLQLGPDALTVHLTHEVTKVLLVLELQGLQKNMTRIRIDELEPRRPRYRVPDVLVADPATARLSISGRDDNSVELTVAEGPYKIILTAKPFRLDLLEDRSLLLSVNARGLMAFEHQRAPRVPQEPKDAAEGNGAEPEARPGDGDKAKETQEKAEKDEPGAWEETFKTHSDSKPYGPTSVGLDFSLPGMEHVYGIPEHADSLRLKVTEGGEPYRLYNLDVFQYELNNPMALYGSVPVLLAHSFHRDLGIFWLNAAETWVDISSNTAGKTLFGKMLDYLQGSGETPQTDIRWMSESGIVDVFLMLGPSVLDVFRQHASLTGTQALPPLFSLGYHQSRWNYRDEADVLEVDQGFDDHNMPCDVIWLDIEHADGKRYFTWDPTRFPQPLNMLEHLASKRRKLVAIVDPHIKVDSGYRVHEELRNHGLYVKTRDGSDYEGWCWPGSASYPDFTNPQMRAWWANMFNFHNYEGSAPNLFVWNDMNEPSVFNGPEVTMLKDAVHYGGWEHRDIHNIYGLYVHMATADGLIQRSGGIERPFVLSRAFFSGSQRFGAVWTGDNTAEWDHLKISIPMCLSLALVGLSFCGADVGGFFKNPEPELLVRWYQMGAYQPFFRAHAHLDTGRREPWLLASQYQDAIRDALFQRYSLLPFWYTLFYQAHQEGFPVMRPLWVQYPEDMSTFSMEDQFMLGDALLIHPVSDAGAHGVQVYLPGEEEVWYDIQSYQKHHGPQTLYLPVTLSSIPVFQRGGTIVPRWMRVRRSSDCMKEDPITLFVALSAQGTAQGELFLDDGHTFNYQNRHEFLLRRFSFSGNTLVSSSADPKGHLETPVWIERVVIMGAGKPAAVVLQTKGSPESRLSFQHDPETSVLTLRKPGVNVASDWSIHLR
T1 sequence (A0A8I6ADW9 1-525 partner): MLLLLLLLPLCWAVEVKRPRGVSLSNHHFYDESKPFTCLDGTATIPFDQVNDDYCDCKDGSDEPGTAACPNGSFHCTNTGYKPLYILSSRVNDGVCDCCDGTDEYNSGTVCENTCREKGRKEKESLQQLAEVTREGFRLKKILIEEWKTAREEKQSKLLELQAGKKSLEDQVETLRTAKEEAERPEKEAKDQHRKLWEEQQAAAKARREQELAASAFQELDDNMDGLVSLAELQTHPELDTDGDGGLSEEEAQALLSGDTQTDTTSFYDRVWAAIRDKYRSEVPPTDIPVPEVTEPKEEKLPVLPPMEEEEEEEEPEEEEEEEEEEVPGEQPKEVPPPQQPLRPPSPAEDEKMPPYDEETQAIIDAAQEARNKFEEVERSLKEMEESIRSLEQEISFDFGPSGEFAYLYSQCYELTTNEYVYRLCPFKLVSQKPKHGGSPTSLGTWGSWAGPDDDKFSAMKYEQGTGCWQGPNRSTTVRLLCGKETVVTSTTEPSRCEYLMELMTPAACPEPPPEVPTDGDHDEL

Usually IC50 stands for the midpoint of a concentration-inhibition curve. Take `CCCCN1CC(O)C(O)C(O)C1CO` [Compound 2, N-butyl-D-1-deoxynojirimycin, reference compound]: the half-maximal inhibitory concentration (IC50) in assay [1] stood at 13 µM; in assay [2], 1.7 µM; in assay [3], 1.6 µM; in assay [4] it was 0.43 µM; in assay [5], 2.1 µM. The “glucosylated free oligosaccharides (FOS) observed after treatment” value in assay [6] is “mono- and triglucosylated FOS were observed”; in assay [7], “inhibits both enzymes”; in assay [8] (10 µm), “produced glucosylated FOS”.

With `Cc1c(C)c2c(c(C)c1OCCCCCN1CC(O)C(O)C(O)C1CO)CCC(C)(CCCC(C)CCCC(C)CCCC(C)C)O2` (centres unmarked) [Compound 4, 5′-tocopheroxypentyl-DNJ], the IC50 is 9 µM in assay [1]; > 50 µM in assay [2]; > 50 µM in assay [3]; > 50 µM in assay [4]; > 50 µM in assay [5]. Moreover, in assay [2] (50 μM), the “inhibition of intestinal maltase at the maximum tested concentration” value is given as “less than 50%”. For the same compound, the inhibition at 50 µM in assay [3] (50 μM, read-out: inhibition of intestinal isomaltase at the maximum tested concentration) was < 50%; in assay [4] (50 μM, read-out: inhibition of intestinal sucrase at the maximum tested concentration) it was < 50%; in assay [5] (50 μM, read-out: inhibition of lysosomal glucosidase at the maximum tested concentration), < 50%. Besides, the “glucosylated free oligosaccharides (FOS) observed after treatment” value is recorded as “Only monoglucosylated FOS accumulated” in assay [6]; “no glucosylated FOS were observed” in assay [7]; “no glucosylated FOS were detected” in assay [7] (listed as ToP-DNJ 4); “did not” in assay [8] (10 µm); “detected” in assay [8] (50 µm); “production of monoglucosylated FOS” in assay [8] (50 µm, listed as ToP-DNJ 4).
